Data as given in article PMC6213879, “Synthesis and Biological Evaluation of Novel Dehydroabietic Acid-Oxazolidinone Hybrids for Antitumor Properties” (International Journal of Molecular Sciences, 2018).

Legend:
Assay type in all cases: cell-based
[1] = tested on: NCI-H460 human lung cancer cell line; assay: MTT cytotoxicity assay, NCI-H460; settings: Homo sapiens, NCI-H460, 48 h, mean ± SD from three independent experiments
Method: (§1) The in vitro antiproliferative activity of the DHAA derivatives 3a–o and 4a–o against four human cancer cell lines (MGC-803 human gastric cancer cell line, CNE-2 human nasopharyngeal carcinoma cell line, SK-OV-3 human ovarian carcinoma cell line, NCI-H460 human lung cancer cell line) and the human normal liver cell line LO2 were evaluated by MTT (methyl thiazolytetrazolium) assay and compared with the parent compound DHAA and the positive control cisplatin in each panel.
(§2) The cytotoxicity of the compounds was evaluated against NCI-H460, MGC-803, SK-OV-3, CNE-2 and LO2 using an MTT assay. Cells were grown on 96-well micro-plates at a density of 4 × 10^3 cells per well in DMEM (dulbecco’s modified eagle medium) medium with 10% FBS (fetal bovine serum). The plates were incubated at 37 °C with 5% CO2. The cells were then exposed to different concentrations of target compounds and cisplatin and incubated for another 48 h. Control wells were formed by culture media with the maximum concentration of DMSO used in each assay (1‰). The cells were stained with 20 µL of MTT in an incubator for about 4 h. The medium was thrown away and replaced by […] DMSO. The absorbance (OD) value was read at 490 nm on an enzyme labeling instrument. Each experiment was repeated at least three times to obtain the mean values.

[2] = tested on: SK-OV-3 human ovarian carcinoma cell line; assay: MTT cytotoxicity assay, SK-OV-3; settings: Homo sapiens, SK-OV-3, 48 h, mean ± SD from three independent experiments
Method: as §1, §2

[3] = tested on: human normal liver cell line LO2; assay: MTT cytotoxicity assay, normal LO2 cells; settings: Homo sapiens, L02, 48 h, mean ± SD from three independent experiments
Method: as §1, §2

[4] = tested on: MGC-803 human gastric cancer cell line; assay: MTT cytotoxicity assay, MGC-803; settings: Homo sapiens, MGC-803, 48 h, mean ± SD from three independent experiments
Method: as §1, §2

[5] = tested on: CNE-2 human nasopharyngeal carcinoma cell line; assay: MTT cytotoxicity assay, CNE-2; settings: Homo sapiens, CNE-2, 48 h, mean ± SD from three independent experiments
Method: as §1, §2

SMILES | IC50 [1] [µM] | IC50 [2] [µM] | IC50 [3] [µM] | IC50 [4] [µM] | IC50 [5] [µM]
CC(C)c1ccc2c(c1)CCC1[C@](C)(C(=O)OCC(O)CNc3ccccc3)CCC[C@]21C (stereo partly drawn) [Compound 3a, (1R,4aS)-2-Hydroxy-3-(Phenylamino)Propyl-7-Isopropyl-1,4a-Dimethyl-1,2,3,4,4a,9,10,10a-Octahydrophenanthrene-1-Carboxylate] | 18.6 ± 0.97 | 15.1 ± 0.57 | > 100 | 7.1 ± 1.51 | 27.87 ± 0.25
Cc1ccccc1NCC(O)COC(=O)[C@]1(C)CCC[C@]2(C)c3ccc(C(C)C)cc3CCC12 (stereo partly drawn) [Compound 3b, (1R,4aS)-2-Hydroxy-3-(2-Methylphenylamino)Propyl-7-Isopropyl-1,4a-Dimethyl-1,2,3,4,4a,9,10, 10a-Octahydrophenanthrene-1-Carboxylate] | > 100 | > 100 | > 100 | 22.6 ± 2.71 | > 100
Cc1cccc(NCC(O)COC(=O)[C@]2(C)CCC[C@]3(C)c4ccc(C(C)C)cc4CCC23)c1 (stereo partly drawn) [Compound 3c, (1R,4aS)-2-Hydroxy-3-(3-Methylphenylamino)Propyl-7-Isopropyl-1,4a-Dimethyl-1,2,3,4,4a,9,10, 10a-Octahydrophenanthrene-1-Carboxylate] | 20.1 ± 2.95 | 14.8 ± 4.03 | 34.7 ± 0.45 | 12.3 ± 4.87 | 14.6 ± 0.19
Cc1ccc(NCC(O)COC(=O)[C@]2(C)CCC[C@]3(C)c4ccc(C(C)C)cc4CCC23)cc1 (stereo partly drawn) [Compound 3d, (1R,4aS)-2-Hydroxy-3-(4-Methylphenylamino)Propyl-7-Isopropyl-1,4a-Dimethyl-1,2,3,4,4a,9,10, 10a-Octahydrophenanthrene-1-Carboxylate] | 44.8 ± 5.26 | 29.9 ± 0.8 | > 100 | 21.8 ± 2.66 | 44.1 ± 2.89
COc1ccccc1NCC(O)COC(=O)[C@]1(C)CCC[C@]2(C)c3ccc(C(C)C)cc3CCC12 (stereo partly drawn) [Compound 3e, (1R,4aS)-2-Hydroxy-3-(2-Methoxyphenylamino)Propyl-7-Isopropyl-1,4a-Dimethyl-1,2,3,4,4a,9, 10,10a-Octahydrophenanthrene-1-Carboxylate] | 26.1 ± 1.92 | 19.5 ± 2.23 | 32.3 ± 1.56 | 28.5 ± 1.35 | 27.4 ± 0.51
COc1cccc(NCC(O)COC(=O)[C@]2(C)CCC[C@]3(C)c4ccc(C(C)C)cc4CCC23)c1 (stereo partly drawn) [Compound 3f, (1R,4aS)-2-Hydroxy-3-(3-Methoxyphenylamino)Propyl-7-Isopropyl-1,4a-Dimethyl-1,2,3,4,4a,9, 10,10a-Octahydrophenanthrene-1-Carboxylate] | 21.9 ± 8.61 | 18.01 ± 0.09 | > 100 | 18.4 ± 1.45 | 17.4 ± 4.32
COc1ccc(NCC(O)COC(=O)[C@]2(C)CCC[C@]3(C)c4ccc(C(C)C)cc4CCC23)cc1 (stereo partly drawn) [Compound 3g, (1R,4aS)-2-Hydroxy-3-(4-Methoxyphenylamino)Propyl-7-Isopropyl-1,4a-Dimethyl-1,2,3,4,4a,9, 10,10a-Octahydrophenanthrene-1-Carboxylate] | > 100 | > 100 | > 100 | 51.7 ± 1.85 | > 100
CC(C)c1ccc2c(c1)CCC1[C@](C)(C(=O)OCC(O)CNc3ccccc3F)CCC[C@]21C (stereo partly drawn) [Compound 3h, (1R,4aS)-2-Hydroxy-3-(2-Fluorophenylamino)Propyl-7-Isopropyl-1,4a-Dimethyl-1,2,3,4,4a,9,10, 10a-Octahydrophenanthrene-1-Carboxylate] | 30.2 ± 3.4 | > 100 | > 100 | 17.5 ± 3.51 | 45.7 ± 5.8
CC(C)c1ccc2c(c1)CCC1[C@](C)(C(=O)OCC(O)CNc3cccc(F)c3)CCC[C@]21C (stereo partly drawn) [Compound 3i, (1R,4aS)-2-Hydroxy-3-(3-Fluorophenylamino)Propyl-7-Isopropyl-1,4a-Dimethyl-1,2,3,4,4a,9,10, 10a-Octahydrophenanthrene-1-Carboxylatev] | > 100 | > 100 | > 100 | > 100 | > 100
CC(C)c1ccc2c(c1)CCC1[C@](C)(C(=O)OCC(O)CNc3ccc(F)cc3)CCC[C@]21C (stereo partly drawn) [Compound 3j, (1R,4aS)-2-Hydroxy-3-(4-Fluorophenylamino)Propyl-7-Isopropyl-1,4a-Dimethyl-1,2,3,4,4a,9,10, 10a-Octahydrophenanthrene-1-Carboxylate] | 15.6 ± 1.45 | 18.9 ± 1.66 | 28.7 ± 0.55 | 14.2 ± 1.7 | 20.7 ± 2.31
CC(C)c1ccc2c(c1)CCC1[C@](C)(C(=O)OCC(O)CNc3cccc(Cl)c3)CCC[C@]21C (stereo partly drawn) [Compound 3k, (1R,4aS)-2-Hydroxy-3-(3-Chlorophenylamino)Propyl-7-Isopropyl-1,4a-Dimethyl-1,2,3,4,4a,9,10, 10a-Octahydrophenanthrene-1-Carboxylate] | 18.1 ± 2.33 | 25.1 ± 4.8 | 35.3 ± 0.57 | 13.1 ± 2.66 | 18.2 ± 4.06
CC(C)c1ccc2c(c1)CCC1[C@](C)(C(=O)OCC(O)CNc3ccc(Cl)cc3)CCC[C@]21C (stereo partly drawn) [Compound 3l, (1R,4aS)-2-Hydroxy-3-(4-Chlorophenylamino)Propyl-7-Isopropyl-1,4a-Dimethyl-1,2,3,4,4a,9,10, 10a-Octahydrophenanthrene-1-Carboxylate] | > 100 | > 100 | > 100 | 34.48 ± 0.02 | > 100
CC(C)c1ccc2c(c1)CCC1[C@](C)(C(=O)OCC(O)CNc3cccc(Br)c3)CCC[C@]21C (stereo partly drawn) [Compound 3m, (1R,4aS)-2-Hydroxy-3-(3-Bromophenylamino)Propyl-7-Isopropyl-1,4a-Dimethyl-1,2,3,4,4a,9,10, 10a-Octahydrophenanthrene-1-Carboxylate] | 19.6 ± 1.12 | 30.3 ± 0.59 | > 100 | 16.5 ± 5.2 | 23.2 ± 2.78
CC(C)c1ccc2c(c1)CCC1[C@](C)(C(=O)OCC(O)CNc3ccc(Br)cc3)CCC[C@]21C (stereo partly drawn) [Compound 3n, (1R,4aS)-2-Hydroxy-3-(4-Bromophenylamino)Propyl-7-Isopropyl-1,4a-Dimethyl-1,2,3,4,4a,9,10, 10a-Octahydrophenanthrene-1-Carboxylate] | 19.1 ± 5.23 | 19 ± 2.11 | > 100 | 9.91 ± 7 | 17.9 ± 4.47
C#Cc1cccc(NCC(O)COC(=O)[C@]2(C)CCC[C@]3(C)c4ccc(C(C)C)cc4CCC23)c1 (stereo partly drawn) [Compound 3o, (1R,4aS)-2-Hydroxy-3-(3-Ethynylphenylamino)Propyl-7-Isopropyl-1,4a-Dimethyl-1,2,3,4,4a,9, 10,10a-Octahydrophenanthrene-1-Carboxylate] | 22.3 ± 2.74 | 23.1 ± 2.23 | > 100 | 13.4 ± 5.41 | 20 ± 1.09
CC(C)c1ccc2c(c1)CCC1[C@](C)(C(=O)OCC3CN(c4ccccc4)C(=O)O3)CCC[C@]21C (stereo partly drawn) [Compound 4a, (1R,4aS)-(2-Oxo-3-Phenyloxazolidin-5-yl)Methyl-7-Isopropyl-1,4a-Dimethyl-1,2,3,4,4a,9,10,10a-Octahydrophenanthrene-1-Carboxylate] | 4.83 ± 0.77 | > 100 | > 100 | 11 ± 4.41 | 9.69 ± 0.13
Cc1ccccc1N1CC(COC(=O)[C@]2(C)CCC[C@]3(C)c4ccc(C(C)C)cc4CCC23)OC1=O (stereo partly drawn) [Compound 4b, (1R,4aS)-(3-(2-Methylphenyl)-2-Oxooxazolidin-5-yl)Methyl-7-Isopropyl-1,4a-Dimethyl-1,2,3,4,4a,9,10,10a-Octahydrophenanthrene-1-Carboxylate] | 27.7 ± 5.03 | > 100 | > 100 | 25 ± 5.02 | > 100
Cc1cccc(N2CC(COC(=O)[C@]3(C)CCC[C@]4(C)c5ccc(C(C)C)cc5CCC34)OC2=O)c1 (stereo partly drawn) [Compound 4c, (1R,4aS)-(3-(3-Methylphenyl)-2-Oxooxazolidin-5-yl)Methyl-7-Isopropyl-1,4a-Dimethyl-1,2,3,4,4a,9,10,10a-Octahydrophenanthrene-1-Carboxylate] | 9.13 ± 2.77 | > 100 | 36.2 ± 2.68 | 10.5 ± 1.44 | 31.96 ± 0.23
Cc1ccc(N2CC(COC(=O)[C@]3(C)CCC[C@]4(C)c5ccc(C(C)C)cc5CCC34)OC2=O)cc1 (stereo partly drawn) [Compound 4d, (1R,4aS)-(3-(4-Methylphenyl)-2-Oxooxazolidin-5-yl)Methyl-7-Isopropyl-1,4a-Dimethyl-1,2,3,4,4a,9,10,10a-Octahydrophenanthrene-1-Carboxylate] | 2.91 ± 2.38 | 19.7 ± 1.33 | 30.6 ± 1.99 | 5.97 ± 0.87 | 21.1 ± 1.96
COc1ccccc1N1CC(COC(=O)[C@]2(C)CCC[C@]3(C)c4ccc(C(C)C)cc4CCC23)OC1=O (stereo partly drawn) [Compound 4e, (1R,4aS)-(3-(2-Methoxyphenyl)-2-Oxooxazolidin-5-yl)Methyl-7-Isopropyl-1,4a-Dimethyl-1,2,3,4,4a,9,10,10a-Octahydrophenanthrene-1-Carboxylate] | 7.99 ± 6.35 | > 100 | 40.6 ± 1.96 | 13.2 ± 1.15 | 20.5 ± 0.97
